{"source": "PubChem BioAssay AID328", "about": "(DTP/NCI, 2004)", "tested_on": "BDF1 mice, P388 leukemia ip, median survival T/C", "assay": "NCI In Vivo Anticancer Drug Screen. Data for tumor model P388 Leukemia (intraperitoneal) in B6D2F1 (BDF1) mice", "details": "endpoint: median survival time, higher = longer survival", "summary_of_the_method": "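Compound-treated tumour-bearing mice were compared with vehicle-treated controls. Survival was recorded, and the value is the treated-group measurement divided by the control-group measurement (T/C).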", "key": {"[1]": {"details": "dose: 12.5 mg/kg/injection, schedule: Q04DX003 (ip), vehicle: saline with Tween-80"}, "[2]": {"details": "dose: 25.0 mg/kg/injection, schedule: Q01DX009 (ip), vehicle: saline with Tween-80"}, "[3]": {"details": "dose: 25.0 mg/kg/injection, schedule: Q04DX003 (ip), vehicle: saline with Tween-80"}, "[4]": {"details": "dose: 50.0 mg/kg/injection, schedule: Q01DX009 (ip), vehicle: saline with Tween-80"}, "[5]": {"details": "dose: 50.0 mg/kg/injection, schedule: Q04DX003 (ip), vehicle: saline with Tween-80"}}, "note": "Values joined by “and” are separate entries in the source; they are usually repeats but may differ in a detail not shown here. Equal entries are not always repeated. Toxic doses and inconclusive results are not listed.", "data": [{"smiles": "COC(=O)C(CCC(=O)O)NC(=O)OCc1ccccc1", "note": "(centres undefined)", "values": [{"measurement": "T/C", "setting": "dose: 25.0 mg/kg/injection, schedule: Q04DX003 (ip), vehicle: Klucel (hydroxypropylcellulose) (HPC)", "result": "104 % of control"}, {"measurement": "T/C", "setting": "dose: 50.0 mg/kg/injection, schedule: Q04DX003 (ip), vehicle: Klucel (hydroxypropylcellulose) (HPC)", "result": "113 % of control"}, {"measurement": "T/C", "setting": "dose: 100.0 mg/kg/injection, schedule: Q04DX003 (ip), vehicle: Klucel (hydroxypropylcellulose) (HPC)", "result": "95 % of control and 109 % of control"}]}, {"smiles": "CCN(CC)CCCC(C)NC/C=C/CNC(C)CCCN(CC)CC", "note": "(centres undefined)", "values": [{"measurement": "T/C", "setting": "dose: 0.78 mg/kg/injection, schedule: Q01DX009 (ip), vehicle: water", "result": "99 % of control"}, {"measurement": "T/C", "setting": "dose: 1.56 mg/kg/injection, schedule: Q01DX009 (ip), vehicle: water", "result": "91 % of control"}, {"measurement": "T/C", "setting": "dose: 3.12 mg/kg/injection, schedule: Q01DX009 (ip), vehicle: water", "result": "91 % of control"}, {"measurement": "T/C", "setting": "dose: 12.5 mg/kg/injection, schedule: Q01DX009 (ip), vehicle: water", "result": "86 % of control"}, {"measurement": "T/C", "setting": "dose: 25.0 mg/kg/injection, schedule: Q01DX009 (ip), vehicle: water", "result": "91 % of control"}, {"measurement": "T/C", "setting": "dose: 50.0 mg/kg/injection, schedule: Q01DX009 (ip), vehicle: water", "result": "99 % of control"}]}, {"smiles": "O=C(Nc1ccc(C2=NCCN2)cc1)c1ccc(C(=O)Nc2ccc(C3=NCCN3)cc2)c([N+](=O)[O-])c1", "values": [{"measurement": "T/C", "setting": "dose: 6.0 mg/kg/injection, schedule: Q01DX010 (ip), vehicle: saline", "result": "163 % of control"}, {"measurement": "T/C", "setting": "dose: 8.0 mg/kg/injection, schedule: Q01DX010 (ip), vehicle: saline", "result": "168 % of control"}, {"measurement": "T/C", "setting": "dose: 12.0 mg/kg/injection, schedule: Q01DX010 (ip), vehicle: saline", "result": "113 % of control"}]}, {"smiles": "CCOC(=O)C(C)(C)CSC(C)(C)C(=O)OCC", "values": [{"measurement": "T/C", "setting": "dose: 100.0 mg/kg/injection, schedule: Q04DX003 (ip), vehicle: saline", "result": "90 % of control"}, {"measurement": "T/C", "setting": "dose: 200.0 mg/kg/injection, schedule: Q04DX003 (ip), vehicle: saline", "result": "90 % of control"}, {"measurement": "T/C", "setting": "dose: 400.0 mg/kg/injection, schedule: Q04DX003 (ip), vehicle: saline", "result": "95 % of control"}]}, {"smiles": "Clc1ccc(-c2cc(=[N+]3CCCCC3)ss2)cc1", "values": [{"measurement": "T/C", "setting": "dose: 6.25 mg/kg/injection, schedule: Q04DX003 (ip), vehicle: saline with Tween-80", "result": "92 % of control"}, {"measurement": "T/C", "setting": "[1]", "result": "102 % of control and 103 % of control"}, {"measurement": "T/C", "setting": "[2]", "result": "110 % of control"}, {"measurement": "T/C", "setting": "[3]", "result": "93 % of control and 94 % of control"}, {"measurement": "T/C", "setting": "[4]", "result": "110 % of control"}, {"measurement": "T/C", "setting": "[5]", "result": "98 % of control and 99 % of control and 119 % of control"}, {"measurement": "T/C", "setting": "dose: 100.0 mg/kg/injection, schedule: Q04DX003 (ip), vehicle: saline with Tween-80", "result": "100 % of control and 102 % of control and 114 % of control"}]}, {"smiles": "O=C(CNC(=O)Nc1ccc(C2=NCCN2)cc1)Nc1ccc(C2=NCCN2)cc1", "values": [{"measurement": "T/C", "setting": "dose: 12.5 mg/kg/injection, schedule: Q01DX009 (ip), vehicle: saline with Tween-80", "result": "104 % of control"}, {"measurement": "T/C", "setting": "[1]", "result": "100 % of control"}, {"measurement": "T/C", "setting": "dose: 22.0 mg/kg/injection, schedule: Q01DX009 (ip), vehicle: saline with Tween-80", "result": "100 % of control"}, {"measurement": "T/C", "setting": "[2]", "result": "120 % of control"}, {"measurement": "T/C", "setting": "[3]", "result": "118 % of control"}, {"measurement": "T/C", "setting": "dose: 33.0 mg/kg/injection, schedule: Q01DX009 (ip), vehicle: saline with Tween-80", "result": "114 % of control"}, {"measurement": "T/C", "setting": "[4]", "result": "166 % of control"}, {"measurement": "T/C", "setting": "[5]", "result": "109 % of control"}, {"measurement": "T/C", "setting": "dose: 75.0 mg/kg/injection, schedule: Q01DX009 (ip), vehicle: saline with Tween-80", "result": "153 % of control"}]}, {"smiles": "COc1ccc2[nH]ccc(=O)c2c1", "values": [{"measurement": "T/C", "setting": "[4]", "result": "102 % of control"}, {"measurement": "T/C", "setting": "dose: 100.0 mg/kg/injection, schedule: Q01DX009 (ip), vehicle: saline with Tween-80", "result": "96 % of control"}, {"measurement": "T/C", "setting": "dose: 200.0 mg/kg/injection, schedule: Q01DX009 (ip), vehicle: saline with Tween-80", "result": "105 % of control"}]}]}
